Assay results: ChEMBL document CHEMBL1151698, “Inhibition of aldose reductase from cataracted eye lenses by finger millet (Eleusine coracana) polyphenols” (Bioorg Med Chem, 2008)
Converted amounts (≈) assume the structure as drawn.

Columns and labels:
[1] = test system: Radical scavenging activity; experiment: Antioxidant activity assessed as DPPH radical scavenging activity after 20 mins; assay type: functional
[2] = molecular target: Aldo-keto reductase family 1 member B1 (Homo sapiens, UniProt P15121); experiment: Inhibition of cataracted human eye lens aldose reductase

IC50 [1] [µg/mL]	IC50 [2] [µM]	Compound
77.63 (≈ 504 µM)	277	O=C(O)c1ccc(O)c(O)c1 [PROTOCATECHUIC ACID]
155.6 (≈ 785 µM)	868	COc1cc(C(=O)O)cc(OC)c1O [SYRINGIC ACID]
176.5 (≈ 1050 µM)	–	COc1cc(C(=O)O)ccc1O [VANILLIC ACID]

The next lines start with the compound.

Compound	IC50 [1] [µg/mL]	IC50 [2] [µM]
O=C(O)/C=C/c1ccccc1 [CINNAMIC ACID]	96.7 (≈ 653 µM)	460
O=C(O)/C=C/c1ccc(O)cc1 [COUMARIC ACID]	112.01 (≈ 682 µM)	989
COc1cc(/C=C/C(=O)O)ccc1O [FERULATE]	189.1 (≈ 974 µM)	–
O=C(O)c1cc(O)c(O)c(O)c1 [GALLIC ACID]	26.9 (≈ 158 µM)	572
O=C(O)c1ccc(O)cc1 [PARABEN]	183.7 (≈ 1330 µM)	–
O=c1c(O)c(-c2ccc(O)c(O)c2)oc2cc(O)cc(O)c12 [QUERCETIN]	56.8 (≈ 188 µM)	–
